Data on 36 compounds can be found in patent publication US20240174680A1, “CDK2 INHIBITORS AND METHODS OF USING THE SAME” (Cedilla Therapeutics, Inc., priority 2021, published 2024).

The structures appear in SMILES notation.

The test addresses CDK2/Cyclin E1 (Homo sapiens, UniProt P24941). The test can be described thus: CDK2/Cyclin E1 Caliper LabChip EZ Reader mobility shift assay. On the set-up: purchased Eurofins 14-475. The class given is biochemical. The note with it: read-out: Caliper Assay (CDK2/CCNE1): IC50. The method, boiled down: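 Mobility-shift kinase assay: compound titrations preincubated 30 min with enzyme and ATP, reaction started with 5-FAM-QSPKKG-CONH2 peptide. Final 2.5 nM CDK2/Cyclin E1, 100 μM ATP, 1.5 μM peptide, HEPES pH 7.5; stopped with EDTA after 100 min. IC50 from four-parameter fit of normalized conversion ratio.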

As for `CC(O[C@H](C)[C@H](NC(=O)[C@@H]1CN(C(=O)c2cncs2)CC12CN(C(=O)[C@H]1CC1(C)C)C2)C(=O)N1CCCCC1)C1CCCCC1` (stereo partly drawn) [I-284, (8S)—N-((2S,3R)-3-(1-cyclohexylethoxy)-1-oxo-1-(piperidin-1-yl)butan-2-yl)-2-((S)-2,2-dimethylcyclopropane-1-carbonyl)-6-(thiazole-5-carbonyl)-2,6-diazaspiro[3.4]octane-8-carboxamide], the IC50 lay within 10 to 100 nM. As for `CNC(=O)[C@@H](NC(=O)[C@@H]1CN(C(=O)c2cnn(Cc3ccccc3)c2)CC12CN(C(=O)[C@H]1CC1(C)C)C2)[C@@H](C)OCC(F)(F)F` [I-204], the figure is 1000 to 10000 nM. To `COCC1(NC(=O)[C@H]2CN(C(=O)c3cnn(Cc4ccccc4)c3)CC23CN(C(=O)[C@H]2CC2(C)C)C3)CC1` [I-250] belongs greater than 10000 nM; to `C[C@@H](OCC1CCCCC1)[C@H](NC(=O)C1CN(C(=O)c2cnn(Cc3ccccc3)c2)CC12CN(C(=O)[C@H]1CC1(C)C)C2)C(=O)N1CC(C)(C)C1` (stereo partly drawn) [I-153 mixture], no more than 10 nM. As for `CC(C)(O)C(NC(=O)[C@@H]1CN(C(=O)c2cncs2)CC12CN(C(=O)[C@H]1CC1(C)C)C2)c1cccc(C2CCOCC2)n1` (stereo partly drawn) [I-423], the IC50 lay within 1000 to 10000 nM. To `CC1(C)C[C@@H]1C(=O)N1CC2(CN(C(=O)c3cnn(Cc4ccccc4)c3)C[C@H]2C(=O)N[C@H]2C[C@@H]2c2cccc(Cl)c2)C1` [I-140A] belongs 100 to 1000 nM; to `CC1(C)C[C@@H]1C(=O)N1CC2(CN(C(=O)c3cnn(Cc4ccccc4)c3)C[C@H]2C(=O)N2CC[C@@H](OCC3CCCCC3)C2)C1` [I-235], 100 to 1000 nM; to `COC[C@H]1CCCN(C(=O)[C@@H](NC(=O)C2CN(C(=O)c3cncs3)CC23CN(C(=O)[C@H]2CC2(C)C)C3)[C@@H](C)OCC2CCCCC2)C1` (stereo partly drawn) [I-196 mixture], no more than 10 nM.

Consider `C[C@H](NC(=O)[C@H]1CN(C(=O)c2cnn(Cc3ccccc3)c2)CC12CN(C(=O)[C@H]1CC1(C)C)C2)c1cccc(F)c1` [I-127B], for which the IC50 is greater than 10000 nM.

For `CNC(=O)[C@@H](NC(=O)[C@@H]1CN(C(=O)c2sc(COC)nc2C)CC12CN(C(=O)[C@H]1CC1(C)C)C2)[C@@H](C)OCC1CCCCC1` [I-162A], the IC50 was in the range of 10 to 100 nM. As for `CC1(C)C[C@@H]1C(=O)N1CC2(CN(C(=O)c3cnn(Cc4ccccc4)c3)C[C@H]2C(=O)N2CCO[C@H](Cc3ccccc3)C2)C1` [I-255], the figure is greater than 10000 nM; as for `C[C@@H](OCc1ccccc1)C(NC(=O)C1CN(C(=O)c2cnn(Cc3ccccc3)c2)CC12CN(C(=O)[C@H]1CC1(C)C)C2)C(=O)NCCOCCOCCO` (stereo partly drawn) [I-21], 10 to 100 nM.

For the compound `CNC(=O)[C@@H](NC(=O)[C@H]1CN(C(=O)c2cnn(Cc3ccccc3)c2)CC12CN(C(=O)[C@H]1CC1(C)C)C2)[C@@H](C)OCC1CCCCC1` [I-123B], the IC50 is 100 to 1000 nM. To `C[C@@H](OCc1ccccc1)[C@H](NC(=O)C1CN(C(=O)c2cnn(Cc3ccccc3)c2)CC12CN(C(=O)[C@H]1CC1(C)C)C2)C(=O)NCCC(=O)O` (stereo partly drawn) [I-29] belongs 100 to 1000 nM; to `CC(O[C@H](C)[C@@H](COC1CCC(F)(F)CC1)NC(=O)[C@@H]1CN(C(=O)c2cncs2)CC12CN(C(=O)[C@H]1CC1(F)F)C2)C1CCC(F)(F)CC1` (stereo partly drawn) [I-316], 100 to 1000 nM; to `CC1(C)C[C@@H]1C(=O)N1CC2(CN(C(=O)c3cnn(Cc4ccccc4)c3)C[C@H]2C(=O)N2CCC[C@H](C(=O)NC3CCCCC3)C2)C1` [I-180], 100 to 1000 nM.

Regarding `C[C@@H](OCC1CCC2(CCC2)CC1)[C@H](NC(=O)[C@@H]1CN(C(=O)c2cnn(Cc3ccccc3)c2)CC12CN(C(=O)[C@H]1CC1(C)C)C2)C(=O)N1CCC(c2cnc[nH]2)CC1` [I-444], the IC50 is no more than 10 nM. To `CNC(=O)[C@@H](NC(=O)[C@@H]1CN(C(=O)c2cncs2)CC12CN(C(=O)[C@H]1CC1(C)C)C2)[C@@H](C)OCC1CCCCC1` [I-129A] belongs 10 to 100 nM; to `Cc1nc(C)c(C(=O)N2C[C@@H](C(=O)N[C@H](C(=O)N3CCC(C(F)(F)F)CC3)[C@@H](C)OCC34CCC(CC3)OC4)C3(C2)CN(C(=O)[C@H]2CC2(C)C)C3)s1` [I-456], no more than 10 nM.

Consider `CNC(=O)[C@@H](NC(=O)[C@@H]1CN(C(=O)c2cnc(COC(C)(C)C)s2)CC12CN(C(=O)[C@H]1CC1(C)C)C2)[C@@H](C)OCC1CCCCC1` [I-175A], for which the IC50 is no more than 10 nM. To `CNC(=O)[C@@H](NC(=O)[C@H]1CN(C(=O)c2scnc2Cl)CC12CN(C(=O)[C@H]1CC1(C)C)C2)[C@@H](C)OCC1CCCCC1` [I-157B] belongs 100 to 1000 nM; to `CNC(=O)[C@@H](NC(=O)[C@@H]1CN(C(=O)c2cnn(Cc3ccccc3)c2)CC12CN(C(=O)[C@H]1CC1(C)C)C2)[C@@H](C)OC[C@H]1CC[C@H](O)CC1` [I-413], 100 to 1000 nM. Turning to `CNC(=O)[C@@H](NC(=O)[C@H]1CN(C(=O)c2cncs2)CC12CN(C(=O)[C@H]1CC1(C)C)C2)[C@@H](C)OCc1ccccc1` [I-24B], the IC50 was greater than 10000 nM. As for `COC[C@H]1CCCN(C(=O)CNC(=O)[C@@H]2CN(C(=O)c3cncs3)CC23CN(C(=O)[C@H]2CC2(C)C)C3)C1` [I-323], the figure is 1000 to 10000 nM; as for `CNC(=O)C(NC(=O)[C@@H]1CN(C(=O)c2cncs2)CC12CN(C(=O)[C@H]1CC1(C)C)C2)c1cccc(N2CC3(COC3)C2)n1` (stereo partly drawn) [I-427], 1000 to 10000 nM. With `CNC(=O)[C@@H](NC(=O)[C@@H]1CN(C(=O)c2cncs2)CC12CN(C(=O)[C@H]1CC1(C)C)C2)C1(OCc2ccccc2)CC1` [I-375], the IC50 lay in the range of 100 to 1000 nM. As for `C[C@@H](OC1(C2CCCCC2)CC1)[C@H](NC(=O)[C@@H]1CN(C(=O)c2cncs2)CC12CN(C(=O)[C@H]1CC1(C)C)C2)C(=O)N1CCCCC1` [I-357], the figure is 10 to 100 nM; as for `CNC(=O)[C@@H](NC(=O)[C@@H]1CN(C(=O)c2cnn(Cc3ccc(C(=O)O)cc3)c2)CC12CN(C(=O)[C@H]1CC1(C)C)C2)[C@@H](C)OCc1ccccc1` [I-476], 1000 to 10000 nM; as for `CC1(C)C[C@@H]1C(=O)N1CC2(CN(C(=O)c3cnn(Cc4ccccc4)c3)CC2C(=O)NC2CNCCOC2)C1` (stereo partly drawn) [I-245], 1000 to 10000 nM. As for `CCOC(=O)C(C)(C)CNC(=O)[C@@H](NC(=O)[C@@H]1CN(C(=O)c2cnn(Cc3ccccc3)c2)CC12CN(C(=O)[C@H]1CC1(C)C)C2)[C@@H](C)OCC1CCCCC1` [I-473], the figure is no more than 10 nM. As for `CNC(=O)[C@@H](NC(=O)[C@H]1CN(C(=O)c2cnn(Cc3ccccc3)c2)CC12CN(C(=O)[C@H]1CC1(C)C)C2)[C@H](C)OCC1CCCCC1` [I-165], the figure is greater than 10000 nM; as for `C[C@@H](NC(=O)[C@H]1CN(C(=O)c2cnn(Cc3ccccc3)c2)CC12CN(C(=O)[C@H]1CC1(C)C)C2)c1cccc(F)c1` [I-128B], greater than 10000 nM. For `CNC(=O)[C@@H](NC(=O)[C@@H]1CN(Cc2cncs2)CC12CN(C(=O)[C@H]1CC1(C)C)C2)[C@@H](C)OCc1ccccc1` [I-51A], the IC50 is greater than 10000 nM. As for `CC1(C)C[C@@H]1C(=O)N1CC2(CN(C(=O)c3cnn(Cc4ccccc4)c3)C[C@H]2C(=O)NCc2nnc[nH]2)C1` [I-191A], the figure is greater than 10000 nM.

As to `CNC(=O)[C@@H](NC(=O)[C@H]1CN(C(=O)c2cnn(Cc3ccccc3)c2)CC12CN(C(=O)C1(CCOC)CC1)C2)[C@@H](C)OCc1ccccc1` [I-102B], the IC50 was greater than 10000 nM. To `CNC(=O)[C@@H](NC(=O)[C@H]1CN(C(=O)c2cncs2)CC12CN(C(=O)CC1CC1)C2)[C@@H](C)OCC1CCCCC1` [I-103B] belongs greater than 10000 nM.
